The text below walks through data of PMC7960226 (Science (New York, N.Y.), 2020).

Where two headings read alike, the source gives them in different places.

In data set [1] the target is ADORA3 (Homo sapiens, UniProt P0DMS8). Particulars: Table 2, ADORA3; accurate to ±20%.
The target of data set [2] is DRD1 (Homo sapiens, UniProt P21728). It is filed as binding. Particulars: Table 2, DRD1; accurate to ±20%.
Data set [3] has as its target PDE3A (Homo sapiens, UniProt Q14432). As to the kind of experiment: safety panel assay, PDE3A. It is filed as biochemical. Particulars: Table 2, PDE3A; accurate to ±20%.
Data set [4] deals with T1, SLCO2B1 (Homo sapiens, UniProt O94956).
T1 sequence (O94956 1-709): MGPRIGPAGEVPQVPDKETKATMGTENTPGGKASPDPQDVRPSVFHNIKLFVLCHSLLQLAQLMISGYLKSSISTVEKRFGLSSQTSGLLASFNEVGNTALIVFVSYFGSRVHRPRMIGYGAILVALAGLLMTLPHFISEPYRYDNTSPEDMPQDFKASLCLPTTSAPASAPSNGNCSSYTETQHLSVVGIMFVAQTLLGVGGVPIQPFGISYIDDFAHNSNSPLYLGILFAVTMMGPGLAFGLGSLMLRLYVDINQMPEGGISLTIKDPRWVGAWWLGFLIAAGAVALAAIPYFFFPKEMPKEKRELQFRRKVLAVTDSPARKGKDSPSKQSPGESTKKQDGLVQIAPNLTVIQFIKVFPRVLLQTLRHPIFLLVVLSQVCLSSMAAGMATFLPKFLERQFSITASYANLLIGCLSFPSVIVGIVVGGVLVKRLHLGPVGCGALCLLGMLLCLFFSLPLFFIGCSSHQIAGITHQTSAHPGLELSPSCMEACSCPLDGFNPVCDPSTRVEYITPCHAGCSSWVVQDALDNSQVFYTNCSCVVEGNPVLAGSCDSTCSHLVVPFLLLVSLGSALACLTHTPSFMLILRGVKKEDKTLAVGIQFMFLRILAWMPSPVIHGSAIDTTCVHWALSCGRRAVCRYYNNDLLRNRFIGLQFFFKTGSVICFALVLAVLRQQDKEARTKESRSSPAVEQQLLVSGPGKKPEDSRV
As to the kind of experiment: in vitro transporter inhibition, SLCO2B1. The data set is classed as biochemical. Particulars: Table 2, SLCO2B1; accurate to ±20%.

For data set [5], the target named is CHRM2 (Homo sapiens, UniProt P08172). Particulars: Table 2, CHRM2; accurate to ±20%.
Sequence of CHRM2 (P08172 whole entry, species assumed): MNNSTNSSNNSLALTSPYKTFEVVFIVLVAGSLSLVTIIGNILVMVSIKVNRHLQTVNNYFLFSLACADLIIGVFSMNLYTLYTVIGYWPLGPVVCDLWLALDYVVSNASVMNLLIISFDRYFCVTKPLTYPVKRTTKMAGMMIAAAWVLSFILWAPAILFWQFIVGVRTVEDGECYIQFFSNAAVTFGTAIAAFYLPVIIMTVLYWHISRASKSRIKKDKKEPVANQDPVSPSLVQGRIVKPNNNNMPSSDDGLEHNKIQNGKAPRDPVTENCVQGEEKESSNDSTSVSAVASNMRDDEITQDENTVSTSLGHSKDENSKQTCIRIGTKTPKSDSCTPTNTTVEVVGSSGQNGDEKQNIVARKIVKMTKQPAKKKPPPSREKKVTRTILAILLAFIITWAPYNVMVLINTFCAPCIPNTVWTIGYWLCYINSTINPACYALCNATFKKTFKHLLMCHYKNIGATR
The target in data set [6] is OPRM1 (Homo sapiens, UniProt P35372). Briefly: safety panel assay, OPRM1. Particulars: Table 2, OPRM1 (OPRM); accurate to ±20%. It is filed as binding.
Sequence of OPRM1 (P35372 whole entry, species assumed): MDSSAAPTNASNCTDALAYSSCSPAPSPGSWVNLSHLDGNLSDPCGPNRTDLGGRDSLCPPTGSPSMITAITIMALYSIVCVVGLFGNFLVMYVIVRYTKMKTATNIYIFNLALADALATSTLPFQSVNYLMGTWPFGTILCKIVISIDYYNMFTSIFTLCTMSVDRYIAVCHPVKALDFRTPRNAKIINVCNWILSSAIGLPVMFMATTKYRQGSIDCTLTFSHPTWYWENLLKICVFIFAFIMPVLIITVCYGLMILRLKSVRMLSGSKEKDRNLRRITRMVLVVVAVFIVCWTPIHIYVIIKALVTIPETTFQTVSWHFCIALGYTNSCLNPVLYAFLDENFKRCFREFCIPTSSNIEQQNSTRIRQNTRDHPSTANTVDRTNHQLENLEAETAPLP
Data set [7] has as its target PRMT1 (Homo sapiens, UniProt Q99873). Particulars: Table 1, predicted target PRMT1.
Data set [8] addresses PDE4D (Homo sapiens, UniProt Q08499). Briefly: in vitro assay, PDE4D. The data set is classed as biochemical. Particulars: Table 2, PDE4D; accurate to ±20%.
Data set [9] deals with SLC22A6 (Homo sapiens, UniProt Q4U2R8). As to the kind of experiment: in vitro transporter assay, SLC22A6. Particulars: Table 1, predicted target SLC22A6.
Data set [10] addresses T2, ADRA1A (Homo sapiens, UniProt P35348).
T2 sequence (P35348 1-466): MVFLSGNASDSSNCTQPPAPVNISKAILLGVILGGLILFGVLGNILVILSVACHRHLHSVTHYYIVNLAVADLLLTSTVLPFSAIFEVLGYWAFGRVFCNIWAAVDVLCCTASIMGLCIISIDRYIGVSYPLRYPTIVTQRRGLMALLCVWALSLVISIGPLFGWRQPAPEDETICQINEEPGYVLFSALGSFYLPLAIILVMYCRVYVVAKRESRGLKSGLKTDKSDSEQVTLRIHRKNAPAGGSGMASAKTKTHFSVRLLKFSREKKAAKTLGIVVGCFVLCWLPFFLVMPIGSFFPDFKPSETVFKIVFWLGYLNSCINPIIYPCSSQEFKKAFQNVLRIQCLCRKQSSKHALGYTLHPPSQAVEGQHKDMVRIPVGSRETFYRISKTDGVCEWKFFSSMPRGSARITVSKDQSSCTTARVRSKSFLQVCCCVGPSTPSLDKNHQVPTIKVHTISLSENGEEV
Particulars: Table 2, ADRA1A; accurate to ±20%.

The target of data set [11] is GABRA1 (Homo sapiens, UniProt P14867). As to the kind of experiment: safety panel assay, GABRA1. It is filed as binding. Particulars: Table 2, GABRA1; accurate to ±20%.
Sequence of GABRA1 (P14867 28-456, species assumed): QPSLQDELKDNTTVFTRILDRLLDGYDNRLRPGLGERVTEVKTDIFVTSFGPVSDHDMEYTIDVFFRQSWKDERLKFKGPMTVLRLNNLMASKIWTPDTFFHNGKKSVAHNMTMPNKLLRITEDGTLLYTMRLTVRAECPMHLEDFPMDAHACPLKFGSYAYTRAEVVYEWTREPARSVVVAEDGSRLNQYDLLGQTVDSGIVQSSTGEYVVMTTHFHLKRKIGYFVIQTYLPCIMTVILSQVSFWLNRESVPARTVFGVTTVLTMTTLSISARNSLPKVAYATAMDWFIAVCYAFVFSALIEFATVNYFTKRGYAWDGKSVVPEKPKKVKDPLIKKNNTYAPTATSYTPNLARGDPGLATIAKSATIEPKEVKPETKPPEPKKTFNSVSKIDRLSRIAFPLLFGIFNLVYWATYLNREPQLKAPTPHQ
The test system of data set [12] is BioMAP Diversity PLUS panel. Briefly: BioMAP Diversity PLUS panel of cell-based systems.
Data set [13] has as its target ACHE (Homo sapiens, UniProt P22303). Particulars: Table 2, ACHE; accurate to ±20%.
For data set [14], the target named is HRH3 (Homo sapiens, UniProt Q9Y5N1). Particulars: Table 2, HRH3; accurate to ±20%.
The target of data set [15] is KCNH2 (Homo sapiens, UniProt Q12809).
Sequence of KCNH2 (Q12809 whole entry): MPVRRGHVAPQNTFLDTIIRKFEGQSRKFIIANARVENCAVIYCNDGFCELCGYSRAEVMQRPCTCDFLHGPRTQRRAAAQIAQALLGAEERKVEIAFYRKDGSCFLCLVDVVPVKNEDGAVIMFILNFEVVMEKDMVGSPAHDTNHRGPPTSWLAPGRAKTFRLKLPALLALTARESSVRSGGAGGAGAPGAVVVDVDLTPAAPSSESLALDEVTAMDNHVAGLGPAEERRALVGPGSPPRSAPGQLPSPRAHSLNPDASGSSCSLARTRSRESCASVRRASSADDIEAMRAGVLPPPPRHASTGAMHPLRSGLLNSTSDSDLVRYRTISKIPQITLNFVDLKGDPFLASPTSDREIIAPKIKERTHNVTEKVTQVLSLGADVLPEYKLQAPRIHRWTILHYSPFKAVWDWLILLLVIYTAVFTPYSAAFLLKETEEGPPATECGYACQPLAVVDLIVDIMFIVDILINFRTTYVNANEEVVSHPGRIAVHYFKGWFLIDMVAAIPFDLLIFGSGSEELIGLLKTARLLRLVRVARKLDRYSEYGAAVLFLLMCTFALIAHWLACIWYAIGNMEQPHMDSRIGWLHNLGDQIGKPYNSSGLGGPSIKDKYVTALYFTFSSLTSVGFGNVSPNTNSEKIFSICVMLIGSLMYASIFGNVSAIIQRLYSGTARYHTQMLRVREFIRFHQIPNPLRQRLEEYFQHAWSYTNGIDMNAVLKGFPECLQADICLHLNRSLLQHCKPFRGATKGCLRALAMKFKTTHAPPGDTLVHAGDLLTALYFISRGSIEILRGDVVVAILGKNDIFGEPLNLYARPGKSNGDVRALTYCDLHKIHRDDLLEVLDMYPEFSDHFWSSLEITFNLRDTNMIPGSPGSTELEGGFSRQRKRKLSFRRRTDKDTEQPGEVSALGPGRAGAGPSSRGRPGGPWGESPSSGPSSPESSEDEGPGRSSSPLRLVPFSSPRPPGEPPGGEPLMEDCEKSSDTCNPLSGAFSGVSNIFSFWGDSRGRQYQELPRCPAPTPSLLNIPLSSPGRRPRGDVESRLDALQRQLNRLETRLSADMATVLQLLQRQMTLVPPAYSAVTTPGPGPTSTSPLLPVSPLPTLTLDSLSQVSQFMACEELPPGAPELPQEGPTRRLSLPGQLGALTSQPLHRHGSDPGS
For data set [16], the target named is T3, PTGS2 (Homo sapiens, UniProt P35354).
T3 sequence (P35354 18-604): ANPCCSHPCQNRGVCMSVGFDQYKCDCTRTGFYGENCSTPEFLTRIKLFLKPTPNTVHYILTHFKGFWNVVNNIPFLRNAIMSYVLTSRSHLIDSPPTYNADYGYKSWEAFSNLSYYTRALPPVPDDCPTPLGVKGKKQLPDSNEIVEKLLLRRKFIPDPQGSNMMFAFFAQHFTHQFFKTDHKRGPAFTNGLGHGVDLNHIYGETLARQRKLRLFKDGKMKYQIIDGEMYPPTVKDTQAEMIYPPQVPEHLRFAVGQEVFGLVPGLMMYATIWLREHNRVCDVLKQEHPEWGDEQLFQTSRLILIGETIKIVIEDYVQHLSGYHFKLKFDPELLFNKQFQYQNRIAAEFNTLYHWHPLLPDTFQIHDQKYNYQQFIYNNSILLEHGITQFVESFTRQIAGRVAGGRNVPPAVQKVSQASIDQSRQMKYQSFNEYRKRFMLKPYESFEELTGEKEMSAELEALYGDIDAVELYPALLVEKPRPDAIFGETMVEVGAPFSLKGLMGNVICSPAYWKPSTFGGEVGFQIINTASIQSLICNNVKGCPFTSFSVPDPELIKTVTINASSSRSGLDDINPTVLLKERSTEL
As to the kind of experiment: safety panel assay, PTGS2. Particulars: Table 2, PTGS2; accurate to ±20%. It is filed as biochemical.

For data set [17], the target named is SLC18A2 (Homo sapiens, UniProt Q05940). As to the kind of experiment: transporter inhibition, SLC18A2. It is filed as biochemical. Particulars: Table 2, SLC18A2; accurate to ±20%.
Sequence of SLC18A2 (Q05940 whole entry, species assumed): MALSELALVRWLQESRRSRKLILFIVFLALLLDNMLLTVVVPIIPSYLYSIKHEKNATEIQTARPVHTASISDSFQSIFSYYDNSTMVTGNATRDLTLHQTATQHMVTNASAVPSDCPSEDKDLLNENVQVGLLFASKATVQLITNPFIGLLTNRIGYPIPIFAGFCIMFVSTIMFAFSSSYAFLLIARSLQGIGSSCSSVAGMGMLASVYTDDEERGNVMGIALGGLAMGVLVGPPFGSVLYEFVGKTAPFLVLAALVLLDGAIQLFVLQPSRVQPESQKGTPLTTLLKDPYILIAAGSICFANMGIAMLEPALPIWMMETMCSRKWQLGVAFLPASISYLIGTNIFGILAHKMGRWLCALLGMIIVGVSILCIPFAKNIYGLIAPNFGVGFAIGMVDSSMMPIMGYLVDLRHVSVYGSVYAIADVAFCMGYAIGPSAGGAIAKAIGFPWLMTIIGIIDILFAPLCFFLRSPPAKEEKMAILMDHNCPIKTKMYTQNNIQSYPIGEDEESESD
Data set [18] has as its target PTGS1 (Homo sapiens, UniProt P23219). Particulars: Table 2, PTGS1; accurate to ±20%.
For data set [19], the target named is SLC6A2 (Homo sapiens, UniProt P23975). Particulars: Table 2, SLC6A2; accurate to ±20%.
Data set [20] has as its target DRD3 (Homo sapiens, UniProt P35462). Particulars: Table 2, DRD3; accurate to ±20%.
The target in data set [21] is SLC6A3 (Homo sapiens, UniProt Q01959). Briefly: safety panel assay, SLC6A3. The data set is classed as biochemical. Particulars: Table 2, SLC6A3; accurate to ±20%.
For data set [22], the target named is T4, CHRM1 (Homo sapiens, UniProt P11229).
T4 sequence (P11229 1-460): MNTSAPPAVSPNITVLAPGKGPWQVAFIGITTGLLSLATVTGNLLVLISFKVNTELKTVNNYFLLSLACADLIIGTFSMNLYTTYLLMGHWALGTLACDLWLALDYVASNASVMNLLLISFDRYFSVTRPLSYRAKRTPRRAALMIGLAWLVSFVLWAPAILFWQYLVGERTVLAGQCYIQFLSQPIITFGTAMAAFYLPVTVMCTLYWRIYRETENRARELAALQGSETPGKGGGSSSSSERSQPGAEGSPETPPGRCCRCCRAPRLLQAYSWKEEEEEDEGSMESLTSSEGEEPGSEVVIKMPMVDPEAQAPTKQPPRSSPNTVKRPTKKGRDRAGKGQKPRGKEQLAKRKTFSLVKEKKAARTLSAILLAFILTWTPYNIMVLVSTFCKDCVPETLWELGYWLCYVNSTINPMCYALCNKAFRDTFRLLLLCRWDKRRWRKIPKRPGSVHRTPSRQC
Particulars: Table 2, CHRM1; an agonist effect was observed; accurate to ±20%.

Data set [23] has as its target ALOX5 (Homo sapiens, UniProt P09917). As to the kind of experiment: in vitro assay, ALOX5. It is filed as biochemical.
Data set [24] deals with COMT (Homo sapiens, UniProt P21964). As to the kind of experiment: in vitro inhibition of COMT.
Sequence of COMT (P21964 whole entry): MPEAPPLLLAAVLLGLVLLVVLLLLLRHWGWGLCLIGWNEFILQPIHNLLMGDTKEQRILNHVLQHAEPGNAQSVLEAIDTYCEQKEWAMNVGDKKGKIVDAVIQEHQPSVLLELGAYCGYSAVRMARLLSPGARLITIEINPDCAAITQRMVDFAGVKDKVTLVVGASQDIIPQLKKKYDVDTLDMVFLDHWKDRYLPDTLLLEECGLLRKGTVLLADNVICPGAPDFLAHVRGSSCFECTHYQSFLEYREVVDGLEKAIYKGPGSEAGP
Data set [25] deals with FTO (Homo sapiens, UniProt Q9C0B1). As to the kind of experiment: in vitro assay, FTO. The data set is classed as biochemical. Particulars: Table 2, FTO; accurate to ±20%.
Data set [26] can be described thus: Madin-Darby canine kidney permeability assay. Particulars: dog, MDCK.
Data set [27] has as its target TY3H (Homo sapiens, UniProt P07101). As to the kind of experiment: in vitro assay, TY3H. Particulars: Table 2, TY3H; accurate to ±20%. It is filed as biochemical.
The target of data set [28] is KDM4C (Homo sapiens, UniProt Q9H3R0). Briefly: in vitro assay, KDM4C. It is filed as biochemical. Particulars: Table 2, KDM4C; accurate to ±20%.
Data set [29] can be described thus: Pharmacokinetics in rats after i.v. and oral administration. Particulars: for Cmax: 10 mg/kg, oral 10 mg/kg.
The target in data set [30] is hERG ion channel (Homo sapiens, UniProt Q12809).

Sequence of DRD1 (P21728 whole entry, species assumed): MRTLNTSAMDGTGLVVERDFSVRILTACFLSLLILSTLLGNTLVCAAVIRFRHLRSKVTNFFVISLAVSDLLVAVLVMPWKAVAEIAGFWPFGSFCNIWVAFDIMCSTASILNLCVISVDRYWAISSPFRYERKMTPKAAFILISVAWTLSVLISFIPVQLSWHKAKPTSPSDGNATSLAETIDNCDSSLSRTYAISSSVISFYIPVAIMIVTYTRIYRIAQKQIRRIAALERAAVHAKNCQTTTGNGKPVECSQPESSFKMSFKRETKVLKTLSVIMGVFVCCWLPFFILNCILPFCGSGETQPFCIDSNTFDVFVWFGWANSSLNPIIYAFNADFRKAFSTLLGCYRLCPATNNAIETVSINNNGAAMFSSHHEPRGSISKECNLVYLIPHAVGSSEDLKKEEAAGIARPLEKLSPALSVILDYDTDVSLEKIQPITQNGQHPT
Sequence of ALOX5 (P09917 whole entry, species assumed): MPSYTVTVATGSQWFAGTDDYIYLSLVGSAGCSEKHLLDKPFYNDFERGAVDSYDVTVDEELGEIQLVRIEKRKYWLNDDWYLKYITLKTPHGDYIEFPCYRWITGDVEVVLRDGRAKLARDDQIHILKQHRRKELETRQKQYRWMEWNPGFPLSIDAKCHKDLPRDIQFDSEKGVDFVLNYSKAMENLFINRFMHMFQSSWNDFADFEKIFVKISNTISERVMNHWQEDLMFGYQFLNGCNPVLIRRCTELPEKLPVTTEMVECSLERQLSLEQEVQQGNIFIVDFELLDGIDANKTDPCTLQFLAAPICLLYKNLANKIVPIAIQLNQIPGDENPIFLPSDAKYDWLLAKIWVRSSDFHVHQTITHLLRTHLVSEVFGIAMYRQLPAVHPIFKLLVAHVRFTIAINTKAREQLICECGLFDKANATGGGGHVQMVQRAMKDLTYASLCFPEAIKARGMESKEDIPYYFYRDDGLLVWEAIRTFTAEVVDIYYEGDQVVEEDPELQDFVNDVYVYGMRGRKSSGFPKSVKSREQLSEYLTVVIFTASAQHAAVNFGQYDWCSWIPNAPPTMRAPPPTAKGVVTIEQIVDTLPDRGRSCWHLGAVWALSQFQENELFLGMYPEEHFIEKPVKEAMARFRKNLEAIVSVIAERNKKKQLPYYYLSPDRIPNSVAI
Sequence of DRD3 (P35462 whole entry, species assumed): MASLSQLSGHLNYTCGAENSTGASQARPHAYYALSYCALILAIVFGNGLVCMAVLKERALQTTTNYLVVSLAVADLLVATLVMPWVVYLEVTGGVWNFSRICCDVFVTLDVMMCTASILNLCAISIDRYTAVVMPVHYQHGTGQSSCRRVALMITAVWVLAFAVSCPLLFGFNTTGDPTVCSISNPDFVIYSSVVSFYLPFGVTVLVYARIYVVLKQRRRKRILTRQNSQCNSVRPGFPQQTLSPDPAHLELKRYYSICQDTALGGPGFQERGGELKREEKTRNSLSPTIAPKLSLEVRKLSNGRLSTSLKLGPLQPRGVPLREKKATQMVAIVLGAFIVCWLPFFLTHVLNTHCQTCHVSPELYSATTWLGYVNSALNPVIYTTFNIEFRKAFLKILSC

As to `O=C([O-])c1c(Cl)c(Cl)c(Cl)c(Cl)c1-c1c2cc(Br)c(=O)c(Br)c-2oc2c(Br)c([O-])c(Br)cc12.[Na+].[Na+]` [D&C Red No. 28, Phloxine B], the “Ki/IC50 Or EC50” value in [1] stood at 480 nM; in [2], 590 nM; in data set [3] it was 130 nM; in data set [4] it was 600 nM; in data set [5] it was 680 nM; in data set [6], 820 nM. In addition, the “Ki/IC50 Or EC50” value in [8] is 940 nM; in data set [10], 480 nM. Besides, the Ki/IC50 in [7] was 700 nM; in data set [9], 64 nM.

`O=C([O-])C1=NN(c2ccc(S(=O)(=O)[O-])cc2)C(=O)C1N=Nc1ccc(S(=O)(=O)[O-])cc1.[Na+].[Na+].[Na+]` (stereo not shown) [FD&C Yellow No. 5 (Tartrazine), Tartrazine]: the results for the “Ki/IC50 Or EC50” value in data set [2], in [11] and in [6] were 23000 nM, 13000 nM and 16000 nM, respectively. Besides, the “activity in the BioMAP cell-based systems” value in [12] (1.1, 3.3, 10, 30 μM) is “no measurable activity”.

In the case of `CN(C)c1ccc2nc3ccc(=[N+](C)C)cc-3sc2c1` [Methylene Blue], the “Ki/IC50 Or EC50” value in [13] is 90 nM; in data set [5], 190 nM; in data set [14], 880 nM; in data set [15] (human), 0.090 0.19 0.88 27.5 μM.

Turning to `CCCCCCCC/C=C\CCCCCCCC(=O)O` [Oleic acid], the “Ki/IC50 Or EC50” value in [16] came to 3500 nM; in data set [17] it was 4700 nM; in [18], 6700 nM.

With `CC(=O)[O][Hg][c]1ccccc1` [Phenylmercuric acetate], the “Ki/IC50 Or EC50” value is 2200 nM in [2]; 1700 nM in [19]; 24 nM in data set [20]; 360 nM in data set [17]; 1800 nM in data set [21]; 8100 nM in [22]. Besides, the “Ki/IC50 Or EC50” value in [15] (Table 2, KCNH2, accurate to ±20%) was 6.2 µM.

For the compound `CCCOC(=O)c1cc(O)c(O)c(O)c1` [Propyl gallate], the “Ki/IC50 Or EC50” value in data set [16] was determined as 7200 nM; in [23] (Table 2, ALOX5, accurate to ±20%), 430 nM; in [25], 3000 nM; in data set [27], 1900 nM; in [28], 39000 nM. In addition, the IC50 in [23] came out at 430 nM; in data set [24], 15 nM. For the same compound, the Ki/IC50 in [24] (Table 1, predicted target COMT) was 15 nM. This compound returned a Papp in data set [26] of 11.7 ×10⁻⁶ cm/s. Moreover, in data set [12] (B and T cells, coronary artery smooth muscle cells, endothelial cells, fibroblasts, at 10 or 30 μM), the effect on proliferation entry is listed as “antiproliferative”. The compound also gave a half-life in data set [29] (rat, blood, iv, 1 mg/kg) of 4.9 h. Besides, the maximum concentration (Cmax) in [29] (rat, blood, po, Oral Cmax, rats) was 5 nM; in data set [29] (read-out: Oral Cmax, rats, blood), less than 8.9 nM. The “i.v. AUC 0–24 (d.n.)” value in [29] (rats, i.v. 1 mg/kg, dose normalized) is reported as 6908 nM-hour.

With `CNC1(c2ccccc2Cl)CCCCC1=O` (stereo not shown) [ketamine], in data set [30], the hERG activity entry is listed as “no detectable hERG activity”.
